The text below walks through data of patent US9908863B2, “Piperidinylcarbazoles” (Merck Patent GmbH, priority 2013, dated 2018).

Test [1] relates to Chloroquine/Pyrimethamine resistant Plasmodium falciparum K1. The experiment in a line: In vitro sensitivity assay: Plasmodium falciparum by 3H-hypoxanthine incorporation. Type of test: cell-based. To be noted: read-out: IC50 K1 in vitro. How it is done:
Biological Test 1: In Vitro Sensitivity Assays: Plasmodium falciparum by ^3H-Hypoxanthine Incorporation.
The strain used for this assay is the Chloroquine/Pyrimethamine resistant Plasmodium falciparum K1 and drugs such as Chloroquine (10 mg/mL stock; start concentration 1000 ng/mL) and Artemisinine (Qinghaosu) (5 mg/mL stock; start concentration 10 ng/mL) were used as standards. Human red blood cells were used as host cells and the activity was measured using a ^3H-hypoxanthine incorporation assay.
Into a Costar™ 96-well microtitre plates, 100 μL of medium (RPMI 1640 without hypoxanthine 10.44 g/L, HEPES 5.94 g/L, Albumax® 5 g/L, Neomycin 10 mL/L, NaHCO3 2.1 g/L) were added to the wells of row containing drugs available from stock solutions of 10 mg/mL in DMSO (compounds were kept at −20° C. Since DMSO is toxic, care had to be taken not to exceed a final concentration of 0.5% DMSO). Then 100 μL of medium were added at rt to all wells of the plate. By means of a 12-well multi-pipette serial drug dilutions were prepared. A serial dilution factor of 1:2 is thus obtained. One row of wells without drugs served as controls. Next 100 μL of medium+washed human red blood cells A+(RBC) was added to the last 4 wells of the first row; these columns serve as background controls (that may be caused by 3H-hypoxanthine incorporation into RBC without the parasite). Into the remaining wells, 100 μL of medium+RBC+P. falciparum mix was added. The plates were placed for 48 h into a chamber at 37° C. gassed with a 4% CO2, 3% O2, 93% N2 mix. Finally 50 μL of medium+3H-hypoxanthine [(500 μL ^3H-hypoxanthine stock+500 μL EtOH+49 mL medium (0.5 μCi)] was added to each well and the plates were put back at 37° C. for 24 h into the chamber and gassed with a 4% CO2, 3% O2, 93% N2 mix. The plates were then read using the Cell Harvester and the data were transferred into a graphic program (Excel) and are evaluated to determine the IC50 by linear interpolation.

Test [2] relates to P. falciparum strain NF54. The experiment in a line: P. falciparum growth assay ([3H] hypoxanthine incorporation). To be noted: Plasmodium falciparum, NF54, read-out: IC50 NF54. Type of test: cell-based. How it is done:
• Cultivation of P. falciparum:
P. falciparum strain NF54 was obtained from the Research and Reference Reagent
Resource Center (MR4) (Manassas, Va.). The two strains were maintained in vitro by a modification of the method of Trager and Jensen. Cultures were maintained in A positive (A+) human erythrocytes suspended at 5% hematocrit in complete medium. 5 g albumax II (Gibco-Invitrogen, Cat No#11021037), 2.5 mg gentamicin (Sigma Aldrich), 25 mM HEPES (Invitrogen), 5 mg hypoxanthine (Sigma), and 1 L of RPMI 1640 (Invitrogen, Cat No#11875085). Cultures were grown in 100 mm petri-dishes (BD Falcon) at a volume of 15 mL and were kept in a standard gas environment of 4% CO2 and 3% 02 at temperature 37° C. in a tri-gas incubator (Cat#3131, Thermo Scientific Forma Series II Water Jacketed). Parasite growth and morphology were observed daily using thin smears at 100× (oil immersion) magnification following staining with Geimsa stain. • P. falciparum growth assay:
The protocol assesses the compound efficacy against the growth of P. falciparum in-vitro.
Parasite growth was detected in assay by the traditional [3H] hypoxanthine incorporation assay as previously described by Desjardins and colleagues (Antimicrob. Agents Chemother., 16(6), 710, 1979). To perform the [3H] hypoxanthine incorporation assay, the new antimalarial agents were serially diluted 1:1 into hypoxanthine-free complete medium to a final volume of 100 μL (final antimalarial agent concentration range, 10,000 nM to 4.8 nM may change in special case) in 96 well sterile cell culture plates. […] All cultures used in the study are albumax II adopted. The microtiter plates were incubated in chamber in a standard gas environment at 37° C. for 72 h. After 48 h of incubation and prior to addition of 50 μL (0.5 μCi/well) 3H-Hypoxanthine (specific activity, 20 Ci/mmol, Conc. 1.0 mCi/ml; American Radiolabeled Chemicals, Inc., St. Louis, Mo.), culture growth was assessed by making the smears that ensures the culture has grown in % p and assay plate is further incubated for 24 h. Following the incubation period, the plates were harvested with a FilterMate cell harvester (Perkin Elmer) onto unifilter-96 GF/B plates, washed with distilled water to remove excess radiochemical and plates were kept for drying 37° C. overnight or 60° C. for 1 h. 50 μL of Microscint scintillation cocktail (Microscint-High Efficiency LSC-Cocktail; Perkin Elmer) added in the unifilter-96 GF/B plates and kept for 15-20 min. The plates were counted in a Top Count NXT microplate scintillation and luminescence counter (Perkin Elmer). The mean values for [3H]hypoxanthine incorporation in parasitized control and non-parasitized control erythrocytes were calculated.
Assay data were analyzed using Graph pad prism ver.5 software. A variable sigmoid dose response curve is plotted keeping log concentrations at X-axis and % inhibition at Y-axis.

For test [3], the system named is Plasmodium berghei, (GFP ANKA strain). The test can be described thus: Plasmodium berghei acute in vivo model. The following applies: NMRI mice, 50 mg/kg/day i.p., 4 daily doses; for decrease of parasitemia: day 4, relative to untreated control group; for Mean Survival Days: survival monitored up to 30 days. How it is done:
Biological Test 2: Plasmodium berghei Acute In Vivo Model.
For this study Plasmodium berghei, (GFP ANKA strain) was used as parasite strain and drugs such as Chloroquine (Sigma C6628) Artemisinin (Sigma 36, 159-3) were used as positive controls.
For the assay a donor mouse with approximately 30% parasitaemia, heparinised blood (containing 50 μL of 200 μ/mL Heparin) was taken and diluted in physiological saline to 10^8 parasitized erythrocytes per mL. An aliquot (0.2 mL) of this suspension was injected intravenously (i.v.) into experimental groups of 3 mice (NMRI mice, females, 20-22 g), and a control group of 3 mice. The mice were studied in a standard macrolon cages type II at 22° C. and 60-70% relative humidity, and were fed with special pellets (PAB45—NAFAG 9009, Provimi Kliba A G, CH-4303 Kaiseraugst, Switzerland), water ad libitum. 4 hours post-infection—the experimental groups were treated with a single dose i.p of the tested drug. The dosage was 50 mg/kg/day and the drug concentration (DMSO 10%) was adjusted so that 0.1 mL/10 g was injected. In a similar manner after 24, 48 and 72 hours post-infection—the experimental groups were treated with a single daily dose i.p. Finally 24 hours after the last drug treatment, 1 μL tail blood was taken and dissolved in 1 mL PBS buffer. Parasitaemia was determined with a FACScan (Becton Dickinson) by counting 100'000 red blood cells. The difference between the mean value of the control group and those of the experimental groups was then calculated and expressed as a percent relative to the control group (=activity). The survival of the animals was monitored up to 30 days and mice surviving for 30 days were checked for parasitaemia and subsequently euthanised. A compound is considered curative if the animal survives to day 30 post-infection with no detectable parasites. The result is expressed as 1) reduction of parasitaemia on day 4 in % as compared to the untreated control group, and 2) mean survival of the group.
B. Franke-Fayard et al., Mol. Biochem. Parasitol., 137(1),23-33, 2004

The subject of test [4] is P falciparum PF3D/^0087/N9. The experiment in a line: In vivo efficacy in a murine model of falciparum-malaria (4-day test). The arrangement: species or system Plasmodium falciparum. From the text:
Biological Experiment 5: In Vivo Efficacy Against P falciparum PF3D/^0087/N9 for the compound No. 6 Described in Example 6 • In vivo activity in a murine model of falciparum-Malaria Angulo-Barturen I, Jimenez-Diaz M B, Mulet T, Rullas J, Herreros E, et al. (2008) A Murine Model of falciparum-Malaria by In Vivo Selection of Competent Strains in Non-Myelodepleted Mice Engrafted with Human Erythrocytes. PLoS ONE 3(5): e2252. doi:10.1371/journal.pone.0002252.
This study measures the therapeutic efficacy of compound no. 6 against Plasmodium falciparum growing in peripheral blood of NODscidIL2Rynull mice engrafted with human erythrocytes. The antimalarial efficacy of compound no. 6 is assessed using a “4-day test”.
The parameters of efficacy estimated in the study are a) the dose of compound no. 6 in mg·kg-1 that reduces parasitemia at day 7 after infection by 90% with respect to vehicle-treated mice (parameter denoted as ED90) and b) the estimated average daily exposure in whole blood of compound no. 6 necessary to reduce P. falciparum parasitemia in peripheral blood at day 7 after infection by 90% with respect to vehicle-treated mice (parameter used to measure the potency of the compound and denoted as AUCED90).

Setting [5] is: Erythrocyte, P. falciparum K1 strain in human red blood cells, 3H-hypoxanthine incorporation.

Counter-ions that a name gives are not always drawn. Like-named read-outs stand apart in the source and are kept apart here.

By IC50 is commonly meant the point on the concentration scale where inhibition reaches its midpoint. Consider `O[C@H]1CNCC[C@@H]1n1c2ccc(Cl)cc2c2cc(Cl)ccc21` (racemic) [Compound 5, Trans-4-(3,6-Dichloro-carbazol-9-yl)-piperidin-3-ol hydrochloride salt], for which the IC50 in test [1] (K1, Erythrocyte) is 9 nM; in test [2], 109 nM.

In the case of `O[C@H]1CCNC[C@@H]1n1c2ccc(Cl)cc2c2cc(Cl)ccc21` (racemic) [Compound 8, trans-3-(3,6-dichloro-9H-carbazol-9-yl)piperidin-4-ol], the half-inhibitory concentration (IC50) in test [1] (setting [5]) amounted to 781 nM.

As for `O[C@H]1CCN(C2CCCCC2)C[C@@H]1n1c2ccc(Cl)cc2c2cc(Cl)ccc21` (racemic) [Compound 14], in test [1] (setting [5]), the 50% inhibitory concentration (IC50) worked out at 13 nM.

In the case of `O[C@H]1CNCC[C@@H]1n1c2ccc(F)cc2c2cc(Cl)ccc21` [Compound 3, (3S,4S)-4-(3-Chloro-6-fluoro-carbazol-9-yl)-piperidin-3-ol hydrochloride salt], the IC50 in test [1] (K1, Erythrocyte) was 3 nM.

On to `O[C@@H]1CNCC[C@H]1n1c2ccc(F)cc2c2cc(Cl)ccc21` [Compound 4, (3R,4R)-4-(3-Chloro-6-fluoro-carbazol-9-yl)-piperidin-3-ol hydrochloride salt], for which the IC50 in test [1] (K1, Erythrocyte) was found to be 3 nM.

For the compound `O[C@H]1CNCC[C@@H]1n1c2ccc(Cl)cc2c2cc(Cl)ccc21` [Compound 6, (3S,4S)-4-(3,6-Dichloro-carbazol-9-yl)-piperidin-3-ol hydrochloride salt], in test [1] (K1, Erythrocyte), the IC50 stood at 10 nM. In addition, in test [3], the decrease of parasitemia is 99.8% and the “Mean Survival Days” value is reported as 30 days. The IC50 in test [2] was determined as 40.2 nM. Further, the ED90 in test [4] (dose reducing parasitemia at day 7 after infection by 90% vs vehicle-treated mice, NODscidIL2Rynull mice engrafted with human erythrocytes) was 22.5 mg/kg. For the same compound, in test [4] (estimated average daily exposure in whole blood needed to reduce parasitemia at day 7 by 90% vs vehicle-treated mice), the AUCED90 was 28.5 μg · h · ml^−1 · day^−1.

Take `O[C@@H]1CNCC[C@H]1n1c2ccc(Cl)cc2c2cc(Cl)ccc21` [Compound 7, (3R,4R)-4-(3,6-Dichloro-carbazol-9-yl)-piperidin-3-ol hydrochloride salt]: the IC50 in test [1] (K1, Erythrocyte) came out at 9 nM. In addition, in test [3], the decrease of parasitemia was 100% and the “Mean Survival Days” value worked out at 30 days. Besides, in test [2], the IC50 is 41.2 nM.

Turning to `O[C@H]1CNCC[C@@H]1n1c2ccc(F)cc2c2cc(F)ccc21` [Compound 9, (3S,4S)-4-(3,6-Difluoro-carbazol-9-yl)-piperidin-3-ol hydrochloride salt], the concentration for half-maximal inhibition (IC50) stood at 16 nM in test [1] (K1, Erythrocyte) and 307 nM in test [2].

With `O[C@@H]1CNCC[C@H]1n1c2ccc(F)cc2c2cc(F)ccc21` [Compound 10, (3R,4R)-4-(3,6-Difluoro-carbazol-9-yl)-piperidin-3-ol hydrochloride salt], the IC50 in test [1] (K1, Erythrocyte) is 33 nM.

With `F[C@@H]1CNCC[C@@H]1n1c2ccc(Cl)cc2c2cc(Cl)ccc21` [Compound 11, 3,6-Dichloro-9-((3R,4S)-3-fluoro-piperidin-4-yl)-9H-carbazole hydrochloride salt], the IC50 in test [1] (K1, Erythrocyte) came out at 1150 nM.

As to `Fc1ccc2c(c1)c1cc(Cl)ccc1n2[C@@H]1CCNC[C@@H]1F` [Compound 12, 3-Chloro-6-fluoro-9-((3S,4R)-3-fluoro-piperidin-4-yl)-9H-carbazole hydrochloride salt], the IC50 in test [1] (K1, Erythrocyte) amounted to 3670 nM.

Consider `Fc1ccc2c(c1)c1cc(Cl)ccc1n2[C@H]1CCNC[C@H]1F` [Compound 13, 3-Chloro-6-fluoro-9-((3R,4S)-3-fluoro-piperidin-4-yl)-9H-carbazole hydrochloride salt], for which the 50% inhibitory concentration (IC50) in test [1] (K1, Erythrocyte) stood at 886 nM.

For the compound `O[C@@H]1CNCC[C@H]1n1c2ccccc2c2ccccc21` [Compound 15, (3R,4R)-4-Carbazol-9-yl-piperidin-3-ol hydrochloride salt], in test [1] (K1, Erythrocyte), the IC50 stood at 383 nM.

In the case of `O[C@H]1CNCC[C@@H]1n1c2ccccc2c2ccccc21` [Compound 16, (3S,4S)-4-Carbazol-9-yl-piperidin-3-ol hydrochloride salt], the IC50 in test [1] (K1, Erythrocyte) is 364 nM.
